In US11571413B2, “Nicotinamide riboside treatments of domesticated meat animals” (Kansas State University Research Foundation, priority 2017, dated 2023):
Marks after values point to notes of the source that are not given here.

Experiments:
fertilized broiler eggs = assay: Immunohistochemical analysis of muscle fiber CSA during in ovo myogenesis (Example 1); assay type: in vivo, chicken; details: 100 μl 250 mM NR in ovo at 11 d
Experimental: At 11-days of incubation, 60 fertilized broiler eggs were randomly assigned to completely randomized design with a 2×2 factorial arrangement. Factor 1 comprised treatment, with eggs injected with 100 μl of 0.9% sterile saline solution (NRNeg) or 250 mM NR in sterile saline (NRPos). Factor 2 comprised injection location, with treatments injected into the yolk or albumen. Eggs were incubated at 37±3° C. and a relative humidity of 40±2% for 7 days. Humidity was increased to 60±2% at the same temperature for the final 3 days of incubation. Twenty-four hours after hatching, chicks were euthanized by exposure to CO2 and decapitation. Measurements including chick weight and left Pectoralis major weight, length, and depth were taken for analysis. Immunohistochemical analysis was conducted to determine if NR supplementation increased muscle fiber cross-sectional area (CSA) during in ovo myogenesis. There were no Treatment×Location or Treatment and Location main effects for muscle fiber CSA (P>0.06). […] This is desired heavily in meat producing animals.

growing pigs [1] = assay: Oral NR for 7 days in growing pigs: average daily gain and loin eye area (Example III); assay type: in vivo, pig
Experimental: (§1) Nine growing pigs were blocked by bodyweight (BW) and placed in metabolism crates. After a 3-day acclimation period, pigs within each BW block were randomly assigned to a treatment (n=3 pigs/treatment). Treatments comprised pigs supplemented 0, 15, or 30 mg/kg BW NR for 7 days. Pigs were allowed ad libitum access to a standard growing diet and water. Treatments were administered daily at 8 a.m. by mixing NR in 20 mL of Karo® dark syrup and orally drenching the pigs. On day 0 and 3 of the trial, muscle biopsies of the LL were taken for NAD+ analysis using standard procedures. At day 7, pigs were transported to the Kansas State University Meats Laboratory and euthanized by a captive penetrating bolt to the brain, followed by exsanguination. Following harvest procedures, 3 g of the LL were collected for NAD+ analysis. Twenty-four hours after harvest, the whole LL not sampled at harvest was removed from the carcass and aged 10 days. After aging, the LL was cut into 6 chops for retail color stability analysis, including 6-day surface oxy- and metmyoglobin percentage, 6-day objective and subjective color panel evaluation, and day 4 and 6 metmyoglobin reducing ability (MRA).

growing pigs [2] = assay: Longissimus lumborum chop retail color stability, 6-day display (Example III); assay type: in vivo, pig; details: for Greater discoloration score of 0 mg/kg chops than NR chops: day 6 of display
Experimental: as §1

growing pigs [3] = assay: Longissimus lumborum NAD+ content (Example III); assay type: in vivo, pig
Experimental: as §1

finished market barrows = assay: Performance test to subjective fatigue (Example V); assay type: in vivo, pig; details: 30 mg/kg BW oral daily; performance test on day 7, 0.88 m/s
Experimental: Fourteen days prior to harvest, 20 finished market barrows (initial body weight 268 pounds) were randomly assigned to 1 of 2 treatments: 0 or 30 mg/kg body weight of nicotinamide riboside, both orally administered daily in 20 ml of Karo® Syrup. Ten days prior to harvest, pigs were restrained via a snare and treatments were administered. On day 7, barrows were subjected to a performance test where they were walked around a track at 0.88 m/s until subjective fatigue was achieved. Three days following the performance test, barrows were harvested and a portion of the semitendinosus muscle was collected within 45 minutes. These samples were analyzed for NAD+ content via HPLC methodology.

[4] = system: Fertilized Cobb 500 broiler eggs; assay: Cyclin D mRNA expression by real-time PCR (second Example VI); assay type: in vivo, chicken; details: 250, 500 mM or 1 M NR; hatched chicks
Experimental: The methods of Burnett et al. (2016) were followed with minor modifications. Briefly, nucleic acids were extracted and purified from 200 mg of the left biceps femoris muscle using Trizol (Life Technologies), followed by subjecting the nucleic acids to PureLink™ RNA
Mini Kit (Life Technologies, Carlsbad, Calif.). Total RNA concentration and 260 nm/280 nm ratio were quantified and extractions yielding RNA with a ratio greater than 1.9 were used for real-time PCR analysis. Trace genomic DNA contamination and reverse transcription were conducted on 50 ng of total RNA using a High-Capacity cDNA Reverse Transcription Kit (Life Technologies). Gene specific primers were designed, efficiencies determined, and validated for qPCR (Table 7). Complementary DNA was amplified in duplicate for each sample using PerfeCTa SYBR Green FastMix (Quanta Biosciences, Gaithersburg, Md.) and the appropriate gene specific forward and reverse primers (20 pM) in an Eppendorff Mastercycler realplex2 S PCR System (Eppendorf North America, Hauppauge, N.Y.). Thermal cycling parameters were initial heating at 50° C. for 2 min, denaturing at 95° C. for 10 min, 50 cycles of 15 s at 95.0° C., annealing at 60.5° C. for 30 s, and extension for 20 s at 68.0° C. A final dissociation step was included at 95° C. for 15 s, 60° C. for 30 s, and 95° C. for 15 s. Expression was normalized to 18S ribosomal RNA expression (ΔCt, where Ct refers to the threshold cycle), and calibrated to control chick (0 mM) mRNA expression (ΔΔCt). Gene fold change expression levels were calculated as 2^−ΔΔCt as previously described by Livak and Schmittgen (2001).

NC(=O)c1ccc[n+]([C@@H]2O[C@H](CO)[C@@H](O)[C@H]2O)c1 [Nicotinamide riboside, nicotinamide riboside]
Muscle fiber cross-sectional area (CSA) (fertilized broiler eggs): did not increase | Loin eye area (LEA) vs 0 mg/kg (growing pigs [1]; 15 mg/kg BW oral daily): did not differ | Better ADG compared to pigs in the other two treatments (numerical trend) (growing pigs [1]; 30 mg/kg BW oral daily): 4.4% | Larger loin eyes than pigs fed 0 mg/kg NR (growing pigs [1]; 30 mg/kg BW oral daily): 52% | Larger loin eyes than pigs fed 15 mg/kg NR (growing pigs [1]; 30 mg/kg BW oral daily): 48% | Visual panel discoloration scores between treatments (growing pigs [2]; 0, 15 and 30 mg/kg, days 1, 4 and 5 of display): did not differ | Less surface metmyoglobin accumulation than 0 mg/kg chops (tendency) (growing pigs [2]; 15 mg/kg BW, 7 days, LL chops, entire 6-day display): 9% | Greater discoloration score of 0 mg/kg chops than NR chops (growing pigs [2]; 15 mg/kg): 41% | Less discoloration than 0 mg/kg chops (tendency) (growing pigs [2]; 15 mg/kg, entire 6-day study): 27% | More MRA than 0 mg/kg chops (tendency) (growing pigs [2]; 15 mg/kg, over the entire study): 42% | Less surface metmyoglobin than 0 mg/kg chops (growing pigs [2]; 30 mg/kg BW, 7 days, LL chops, entire 6-day display): 14% | Greater discoloration score of 0 mg/kg chops than NR chops (growing pigs [2]; 30 mg/kg): 39% | Less surface discoloration than 0 mg/kg chops (growing pigs [2]; 30 mg/kg, entire 6-day study): 30% | More metmyoglobin reducing ability (MRA) than 0 mg/kg chops (growing pigs [2]; 30 mg/kg, over the entire study): 64% | Surface discoloration of 0 mg/kg chops vs 15 and 30 mg/kg chops (growing pigs [2]; days 2 and 3 of display): tended to have more surface discoloration | Day 3 NAD+ change, percent change (growing pigs [3]; 15 mg/kg): 28.55^b,x Percent | Day 3 NAD+ change, total (growing pigs [3]; 15 mg/kg): 2.10^b pMol/g tissue | Day 7 NAD+ change, percent change (growing pigs [3]; 15 mg/kg): 35.29^b,x Percent | Day 7 NAD+ change, total (growing pigs [3]; 15 mg/kg): 2.72^b pMol/g tissue | NAD+ (growing pigs [3]; 15 mg/kg group, Day 0 (before supplementation)): 7.70 pMol/g tissue | NAD+ (growing pigs [3]; 15 mg/kg, Day 7): 10.42 pMol/g tissue | NAD+ (growing pigs [3]; 15 mg/kg, middle column group (Day 3, head not given)): 9.80 pMol/g tissue | Day 3 NAD+ change, percent change (growing pigs [3]; 30 mg/kg): 6.43^a,b,y Percent | Day 3 NAD+ change, total (growing pigs [3]; 30 mg/kg): 0.71^a,b,y pMol/g tissue | Day 7 NAD+ change, percent change (growing pigs [3]; 30 mg/kg): 10.92^a,b,y Percent | Day 7 NAD+ change, total (growing pigs [3]; 30 mg/kg): 0.93^a,b,y pMol/g tissue | NAD+ (growing pigs [3]; 30 mg/kg group, Day 0 (before supplementation)): 8.60 pMol/g tissue | NAD+ (growing pigs [3]; 30 mg/kg, Day 7): 9.53 pMol/g tissue | NAD+ (growing pigs [3]; 30 mg/kg, middle column group (Day 3, head not given)): 9.31 pMol/g tissue | Ran farther (distance) than unsupplemented barrows, numerically (finished market barrows): 16% | Ran longer (time to subjective fatigue) than unsupplemented barrows, numerically (finished market barrows): 19% | Cyclin D1 and 2 mRNA expression [4]: no treatment effects | Cyclin D3 mRNA expression, control vs all NR treatments [4]: Control chicks had greater cyclin D3 expression | Greater cyclin D3 mRNA expression of control chicks than NR chicks (average) [4]: 38%
